Measurements published in US10336712B2, “Compound for enhancing the coupling degree of complex TRPV4-KCa2.3 and anti-hypertension applications thereof” (Jiangnan University, priority 2017, dated 2019).

Tests used:
[1] = biological target: T1, protein TRPV4 (structural domain AR2) (Mus musculus, UniProt Q9EPK8); experiment: Streptavidin magnetic bead pull-down of biotinylated JNc-440 from endothelial cell protein, Western blot detection; type: binding, C57BL/6 J mouse; conditions: FIG. 3
T1 construct: RIPA Lysis is carried out to obtain cellular protein; endogenous in cells; host or cells: primary mesenteric endothelial cells of C57BL/6J mouse
T1 sequence (Q9EPK8 whole entry, the tested form may be a part): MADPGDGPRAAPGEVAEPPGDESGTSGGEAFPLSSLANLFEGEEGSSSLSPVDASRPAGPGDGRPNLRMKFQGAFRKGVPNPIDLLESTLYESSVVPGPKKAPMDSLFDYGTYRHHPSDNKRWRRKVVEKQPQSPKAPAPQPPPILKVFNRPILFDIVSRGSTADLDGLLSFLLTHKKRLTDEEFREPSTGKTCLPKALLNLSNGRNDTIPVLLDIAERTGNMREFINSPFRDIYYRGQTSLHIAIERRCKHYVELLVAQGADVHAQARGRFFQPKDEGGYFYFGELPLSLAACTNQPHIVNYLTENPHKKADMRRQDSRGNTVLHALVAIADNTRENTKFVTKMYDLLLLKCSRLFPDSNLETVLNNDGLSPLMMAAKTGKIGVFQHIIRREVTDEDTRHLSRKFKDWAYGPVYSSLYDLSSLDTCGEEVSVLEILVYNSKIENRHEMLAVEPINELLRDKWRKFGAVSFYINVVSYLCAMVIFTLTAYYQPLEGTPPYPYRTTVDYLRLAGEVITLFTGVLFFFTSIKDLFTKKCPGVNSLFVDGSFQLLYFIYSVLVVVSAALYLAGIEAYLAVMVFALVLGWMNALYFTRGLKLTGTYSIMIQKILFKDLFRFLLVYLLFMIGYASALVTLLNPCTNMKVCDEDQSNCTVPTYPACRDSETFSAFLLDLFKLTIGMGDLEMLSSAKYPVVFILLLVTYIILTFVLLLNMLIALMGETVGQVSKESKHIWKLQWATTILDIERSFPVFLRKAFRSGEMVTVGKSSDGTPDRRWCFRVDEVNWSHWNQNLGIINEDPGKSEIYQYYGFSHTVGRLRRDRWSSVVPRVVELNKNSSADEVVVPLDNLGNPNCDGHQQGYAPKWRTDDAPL
Experimental: (§1) The endothelial cells of C57BL/6 J mouse mesentery are primarily isolated, and then incubated in a constant-temperature cell incubator. Biotinylated JNc-440 (10 μM/L) is added or oligopeptide and biotinylated JNc-440 (10 μM/L) are added into the incubator to jointly incubated with the cells for 96 h. RIPA Lysis is carried out to obtain cellular protein. The protein supernatant is added with 10 μL streptavidin magnetic beads, and the mixture is incubated at a temperature of 4° C. for a whole night. Suspension generated after the incubation is absorbed using a magnetic stand to obtain an avidin magnetic bead-biotinylated JNc-440-protein complex. The complex is suspended with 50 μL of 1× Loading buffer, and boiled for 5 min in a boiling bath. Samples are separated through SDS-PAGE. Proteins are transferred onto a PVDF membrane. The PVDF membrane with the proteins are confined in 5% BSA for 4 h at room temperature, then incubated with a primary antibody at a temperature of 4° C. for a whole night, and next incubated with a secondary antibody for 2 h at room temperature. ECL color developing agent is added. A protein imaging system is used to detect and analyze the obtained product.

[2] = biological target: T2, protein KCa2.3 (structural domain 17C) (Mus musculus, UniProt P58391); experiment: as above; type: binding, C57BL/6 J mouse; conditions: FIG. 3
T2 construct: RIPA Lysis is carried out to obtain cellular protein; endogenous in cells; host or cells: primary mesenteric endothelial cells of C57BL/6J mouse
Experimental: as §1

[3] = biological target: T3, endothelial cell ion channel complex TRPV4-KCa2.3 (Mus musculus, UniProt P58391+Q9EPK8); experiment: FRET AB detection of coupling of TRPV4 and KCa2.3 in mesentery endothelial cells of hypertensive mice; type: cell-based, C57BL/6J mouse; conditions: 10 μM, 96 h, endothelial cells of 8% high-salt, L-NAME and ANG-2 hypertensive mice; FIG. 4
T3 construct: The mesentery endothelial cells of the mice in the high blood pressure model are primarily isolated; endogenous in cells; host or cells: primary mesenteric endothelial cells of hypertensive C57BL/6J mice (high-salt, L-NAME, ANG-2 models)
Experimental: (§2) C57BL/6J Male mice, 8 weeks aged, are selected, and freely fed for one week. Then, the mice are classified into four groups, respectively 8% high-salt group, L-NAME group, ANG-2 group and reference group. The basic blood pressures of the four groups of mice are measured first to determine the base line of the blood pressure of the mice. The conditions of the reference group are not changed, and the blood pressure is measured every day. The high-salt group is fed with 8% high-salt feed, and then the blood pressure is measured every day. The L-name group is fed with 5% L-NAME solution, and then the blood pressure is measured every day. The ANG-2 group is injected with 4% chloral hydrate to perform anesthesia; then, the mice are respectively operated by implanting a pump on the back, wherein each pump is injected with 200 ul of 2.88 mg/ml ANG-2 solution; then, the mice are sutured and allowed to recover; after approximately 3 days, the measurement of the blood pressure begins, and then continues for about 4 weeks. […]
The mesentery endothelial cells of the mice in the high blood pressure model are primarily isolated and incubated in a constant-temperature cell incubator. […] Then, the coupling of the two proteins before and after the mutation is detected using the laser scanning confocal microscope in the FRET AB mode.

[4] = tested on: three high blood pressure types of mice models; experiment: Blood pressure in three high blood pressure types of mice models; type: in vivo, C57BL/6J mouse; conditions: 1 mg/kg injected via the caudal veins; 8% high-salt, L-NAME and ANG-2 models; FIG. 5
Experimental: as §2
Experimental method: three high blood pressure types of mice models are constructed according to the method in Embodiment 4. After modeling succeeds, JNc-440 (1 mg/kg) is injected via the caudal veins, and then the blood pressure of the mice is measured and observed.

[5] = 10 μM/L, incubated 96 h with primary mouse mesentery endothelial cells

capability of binding with the protein TRPV4 after the oligopeptide AR2 is added ([1]; 10 μM/L plus oligopeptide AR2, 96 h)	binding with the protein TRPV4 [1, 5]	capability of binding with the protein KCa2.3 after the oligopeptide 17C is added ([2]; 10 μM/L plus oligopeptide 17C, 96 h, compared with the reference control)	binding with the protein KCa2.3 [2, 5]	space coupling degree of the proteins TRPV4 and KCa2.3 (FRET) [3]	Structure (SMILES)	blood pressure of the mice [4]
obviously reduced	can be bound	obviously reduced	can be bound		O=C1NC2CSC(CCCCC(=O)OCCCCCNc3nc(C(=O)NCCCNC(=O)C(c4ccccc4)c4ccccc4)nc4ccccc34)C2N1 (stereo not drawn) [biotinylated JNc-440]	
				increased obviously	O=C(NCCCNC(=O)C(c1ccccc1)c1ccccc1)c1nc(=O)c2ccccc2[nH]1 [JNc-440]	drops obviously
